How the values were obtained:
Pip/PPTR = target: T1, Pip/PPTR (Streptomyces coelicolor, UniProt Q9ADN3); assay: Gel retardation assay of Pip/PPTR interaction; type: binding; conditions: Pip 0.2 pmol titrated with 50 pmol to 0.01 pmol antibiotic
T1 construct: gel retardation with ptr promoter DNA (PPTR) of S. pristinaespiralis
T1 sequence (Q9ADN3 1-252): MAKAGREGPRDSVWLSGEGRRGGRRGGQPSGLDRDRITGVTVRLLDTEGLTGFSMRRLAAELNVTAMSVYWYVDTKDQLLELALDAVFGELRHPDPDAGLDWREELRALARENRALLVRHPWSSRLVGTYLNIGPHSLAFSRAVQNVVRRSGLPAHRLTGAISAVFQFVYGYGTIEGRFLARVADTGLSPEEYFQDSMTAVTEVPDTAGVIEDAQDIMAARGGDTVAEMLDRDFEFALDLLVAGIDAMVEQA
From the text: FIG. 1: Gel retardation assay showing Pip/PPTR interaction. PPTR of S. pristinaespiralis contains 3 dyad symmetrical binding sites (lane A; PPTR in the absence of Pip) all of which are saturated at relatively large amounts of purified Pip (0.4 pmol; […]) resulting in a single shifted band. Smaller amounts of Pip (0.02 pmol) presented an intermediate situation in which all possible permutations of site occupancy are represented in three distinct retarded bands (lane C). Pip (0.2 pmol lanes D-M) was titrated with a range of PI from 50 pmol to 0.01 pmol (lanes D-H; D: 50 pmol; E: 10 pmol; F: 1 pmol; G: 0.1 pmol; H: 0.01 pmol). […]
Chinese hamster ovary cells (CHO-K1, ATCC: CCL 61), Baby hamster kidney cells (BHK-21, ATCC: CRL-8544), and HeLa cells (ATCC: CRL-7923) as well as stable cell lines CHO-PIT1, CHO-PIT2, CHO-TWIN195, CHO-TWIN1108 and CHO-PIT1-SEAP were cultured as described before (Fussenegger et al., 1998, Nat. Biotechnol. 16,468-472) in the presence of appropriate antibiotics: G418 400 μg/ml; zeocin 100 μg/ml. […] Transient transfected cells were routinely analyzed after 48 h for GFP or SEAP expression using fluorescence microscopy and p-nitrophenolphosphate-based light absorbance timecourse, respectively, as described before (Fussenegger et al., 1998, Nat. Biotechnol. 16, 468-472; Berger et al., 1988, Gene 66, 1-10 b). […]

PIT/PPIR system = target: T2, PIT/PPIR system (Streptomyces coelicolor, UniProt Q9ADN3); assay: SEAP reporter assay, CHO-K1 cotransfected with pMF156 (PIT) and pMF172 (PPIR-SEAP); type: cell-based
T2 construct: pMF156/pTWIN in CHO cells, PPIR-SEAP or GFP reporter
T2 sequence (Q9ADN3 1-252): T1 sequence (Q9ADN3 1-252)
Method: PIT, the fusion protein of Pip and the VP16 C-terminal transactivation domain of Herpes simplex (Triezenberg et al., 1988, Genes Dev. 2, 718-729) was constructed by amplifying the S. coelicolor Pip from pGemT::Epip4 with oligos:
Chinese hamster ovary cells (CHO-K1, ATCC: CCL 61), Baby hamster kidney cells (BHK-21, ATCC: CRL-8544), and HeLa cells (ATCC: CRL-7923) as well as stable cell lines CHO-PIT1, CHO-PIT2, CHO-TWIN195, CHO-TWIN1108 and CHO-PIT1-SEAP were cultured as described before (Fussenegger et al., 1998, Nat. Biotechnol. 16,468-472) in the presence of appropriate antibiotics: G418 400 μg/ml; zeocin 100 μg/ml. Optimized CaPO4 protocols were used for high efficiency transient transfection of all cell lines (id). Transient transfected cells were routinely analyzed after 48 h for GFP or SEAP expression using fluorescence microscopy and p-nitrophenolphosphate-based light absorbance timecourse, respectively, as described before (Fussenegger et al., 1998, Nat. Biotechnol. 16, 468-472; Berger et al., 1988, Gene 66, 1-10 b). For construction of stable CHO-PIT and CHO-TWIN cell lines, CHO-K1 was cotransfected either with pMF156 or pTWIN1 and pSV2neo carrying the G418 resistance gene. CHO-PIT1-SEAP was constructed by cotransfection of pMF172 and pZeoSV2 (Invitrogen). For assessment of dose-response characteristics of PPIR -regulated gene expression, CHO-PIT1-SEAP were cultured at cell densities of 150,000/ml for 48 at various PI concentrations. The mixed populations were cloned using FACS-mediated single-cell-sorting (FACStar^Plus; Beckton Dickinson). Gel retardation assay were performed as described (Salah-Bey et al., 1995, supra) using Pip purified from an overproducing strain of E. coli. Pip (0.02 pmol) was titrated with a range of antibiotic concentrations in a reaction volume of 20 μl. Protein solutions were pre-incubated at room temperature for 15 min. in the absence or presence of PI or its derivative quinupristin in a buffer containing 10 mM Tris (pH 7.8), 10 mM MgCl2, 300 mM NaCl, 2 mM DTT and 10% glycerol. An EcoRI-HindII PPTR fragment (0.02 pmol) containing three Pip binding sites (radiolabelled using α-^32 P)dATP was added and incubated for 15 min. To minimize nonspecific protein binding and increase protein stability, 2 μg of poly dIdC and 20 μg BSA were included in the incubation mix. Protein-DNA complexes were separated on 5% polyacrylamide,TBE gels and visualized by autoradiography.
Five different sources of pristinamycin were used: The two therapeutic forms Pyostacin™ and Synercid™, pristinamycin discs, and the single compounds pristinamycin I (PI) and pristinamycin II (PII). Pyostacin™ pills (500 mg) were ground in a mortar and solubilized in DMSO or water at a stock concentration of 50 mg/ml. Synercid™ (RP 59500; Lot Nr. CB06253) was provided by Aventis in injection-ready vials containing 500 mg lyophilized antibiotic which was reconstituted in 5 ml of 5% glucose solution and frozen at -20° C. Individual pristinamycin compounds PI and PII (identical to virginiamycin M1 (VM1); Sigma ref. V2753) were solubilized in DMSO at a concentration of 50 mg/ml and kept at -20° C. Antibiotic discs containing 15 μg pristinamycin or virginiamycin (bioMerieux, ref. 54552; bioMerieux, ref. 54612) were soaked in 1 ml cell culture medium at 4i C for up to 24 h. […] The concentration of individual streptogramin components was calculated based on their fixed 70:30 ratio (w/w; PII/VM1 /dalfopristin: PI/VS1 /quinupristin). […]

pristinamycin I [PI]
Release of Pip from PPTR (Pip/PPTR): completely released | SEAP readout (slope of the p-nitrophenolphosphate-based light absorbance time courses) (PIT/PPIR system; +PI (2 μg/ml), 48 hr post transfection, CHO + pMF156 + pMF172): 0.03 ± 0.002 | Downregulation of PIT/PPIR-mediated SEAP expression (PIT/PPIR system; CHO-K1, 2 μg/ml): effective downregulation | SEAP Production (%) (PIT/PPIR system; inducer 2 μg/ml, assayed 48 hr later, no inducer = 100): 7.90 ± 1.2%

Source: patent US6287813A, “Antibiotic-based gene regulation system” (Cistronics Cell Technology GmbH, priority 1999, dated 2001)
